The subject of experiment [1] is Staphylococcus aureus. Nature of the experiment: Antibacterial activity against methicillin-sensitive Staphylococcus aureus ATCC 29213 after 18 hrs by broth microdilution method. Particulars: ATCC 29213, 18 h, read-out: IC50. The format is functional, organism-based. For orientation: Broth dilution looks for growth in wells or tubes with falling amounts of substance.

Experiment [2] deals with Staphylococcus aureus. Nature of the experiment: Antibacterial activity against methicillin-resistant Staphylococcus aureus ATCC 33591 after 18 hrs by broth microdilution method. The format is functional, organism-based. To be noted: ATCC 33591, 18 h, read-out: IC50.
For experiment [3], the system named is Staphylococcus aureus. Nature of the experiment: Antibacterial activity against methicillin-sensitive Staphylococcus aureus 15 after 18 hrs by broth microdilution method. It is filed as functional, organism-based. Particulars: Staphylococcus aureus, 15, 18 h; read-out: IC50.
For experiment [4], the system named is Staphylococcus aureus. Put plainly: Antibacterial activity against methicillin-sensitive Staphylococcus aureus 12-28 after 18 hrs by broth microdilution method. It is filed as functional, organism-based. To be noted: 12-28, 18 h.
In experiment [5] the test system is Staphylococcus aureus. Nature of the experiment: Antibacterial activity against methicillin-resistant Staphylococcus aureus 12-33 after 18 hrs by broth microdilution method. The format is functional, organism-based. Particulars: 12-33, 18 h, read-out: IC50.
In experiment [6] the test system is Staphylococcus epidermidis. Nature of the experiment: Antibacterial activity against methicillin-sensitive Staphylococcus epidermidis ATCC 12228 after 18 hrs by broth microdilution method. It is filed as functional, organism-based. Particulars: ATCC 12228, 18 h, read-out: IC50.
For experiment [7], the system named is Staphylococcus epidermidis. Put plainly: Antibacterial activity against methicillin-sensitive Staphylococcus epidermidis 12-6 after 18 hrs by broth microdilution method. Particulars: 12-6, 18 h. It is filed as functional, organism-based.
Experiment [8] relates to Staphylococcus epidermidis. Nature of the experiment: Antibacterial activity against methicillin-resistant Staphylococcus epidermidis 12-8 after 18 hrs by broth microdilution method. It is filed as functional, organism-based. Particulars: 12-8, 18 h, read-out: IC50.
The subject of experiment [9] is Enterococcus faecalis. Put plainly: Antibacterial activity against vancomycin-sensitive Enterococcus faecalis ATCC 29212 after 18 hrs by broth microdilution method. The format is functional, organism-based. To be noted: ATCC 29212, 18 h, read-out: IC50.
The test system of experiment [10] is Enterococcus faecalis. Nature of the experiment: Antibacterial activity against vancomycin-resistant Enterococcus faecalis ATCC 51299 after 18 hrs by broth microdilution method. The format is functional, organism-based. To be noted: ATCC 51299, 18 h, read-out: IC50.
The test system of experiment [11] is Enterococcus faecalis. Nature of the experiment: Antibacterial activity against vancomycin-sensitive Enterococcus faecalis 12-5 after 18 hrs by broth microdilution method. The format is functional, organism-based. To be noted: 12-5, 18 h, read-out: IC50.
The test system of experiment [12] is Enterococcus faecalis. Nature of the experiment: Antibacterial activity against vancomycin-resistant Enterococcus faecalis 09-9 after 18 hrs by broth microdilution method. The format is functional, organism-based. Particulars: 09-9, 18 h, read-out: IC50.
In experiment [13] the test system is Enterococcus faecium. Nature of the experiment: Antibacterial activity against vancomycin-resistant Enterococcus faecium ATCC 700221 after 18 hrs by broth microdilution method. The format is functional, organism-based. Particulars: ATCC 700221, 18 h, read-out: IC50.
Experiment [14] deals with Enterococcus faecium. Nature of the experiment: Antibacterial activity against vancomycin-resistant Enterococcus faecium 12-1 after 18 hrs by broth microdilution method. The format is functional, organism-based. Particulars: 12-1, 18 h, read-out: IC50.
In experiment [15] the test system is Enterococcus faecium. Put plainly: Antibacterial activity against vancomycin-sensitive Enterococcus faecium 12-3 after 18 hrs by broth microdilution method. The format is functional, organism-based. To be noted: 12-3, 18 h, read-out: IC50.
Experiment [16] deals with Escherichia coli. Nature of the experiment: Antibacterial activity against extended spectrum beta-lactamase-deficient Escherichia coli ATCC 25922 after 18 hrs by broth microdilution method. The format is functional, organism-based. Particulars: ATCC 25922, 18 h, read-out: IC50.
The test system of experiment [17] is Escherichia coli. Nature of the experiment: Antibacterial activity against extended spectrum beta-lactamase-deficient Escherichia coli 1515 after 18 hrs by broth microdilution method. To be noted: Escherichia coli, 1515, 18 h. The format is functional, organism-based.
For experiment [18], the system named is Escherichia coli. Nature of the experiment: Antibacterial activity against extended spectrum beta-lactamase-deficient Escherichia coli 12-14 after 18 hrs by broth microdilution method. It is filed as functional, organism-based. To be noted: 12-14, 18 h, read-out: IC50.
Experiment [19] has as its system Escherichia coli. Put plainly: Antibacterial activity against extended spectrum beta-lactamase producing Escherichia coli 12-15 after 18 hrs by broth microdilution method. It is filed as functional, organism-based. To be noted: 12-15, 18 h, read-out: IC50.
In experiment [20] the test system is Klebsiella pneumoniae. Nature of the experiment: Antibacterial activity against extended spectrum beta-lactamase producing Klebsiella pneumoniae ATCC 700603 after 18 hrs by broth microdilution method. The format is functional, organism-based. Particulars: ATCC 700603, 18 h.
Experiment [21] relates to Klebsiella pneumoniae. Put plainly: Antibacterial activity against extended spectrum beta-lactamase-deficient Klebsiella pneumoniae 7 after 18 hrs by broth microdilution method. The format is functional, organism-based. Particulars: Klebsiella pneumoniae, 7, 18 h; read-out: IC50.
Experiment [22] has as its system Klebsiella pneumoniae. Nature of the experiment: Antibacterial activity against NDM-1 producing Klebsiella pneumoniae ATCC BAA-2146 after 18 hrs by broth microdilution method. The format is functional, organism-based. To be noted: ATCC BAA-2146, 18 h, read-out: IC50.
In experiment [23] the test system is Klebsiella pneumoniae. Put plainly: Antibacterial activity against extended spectrum beta-lactamase-deficient Klebsiella pneumoniae 12-4 after 18 hrs by broth microdilution method. The format is functional, organism-based. To be noted: 12-4, 18 h.
Experiment [24] concerns Klebsiella pneumoniae. Put plainly: Antibacterial activity against extended spectrum beta-lactamase producing Klebsiella pneumoniae 12-8 after 18 hrs by broth microdilution method. It is filed as functional, organism-based. To be noted: 12-8, 18 h, read-out: IC50.
Experiment [25] has as its system Staphylococcus aureus. Put plainly: Antibacterial activity against Staphylococcus aureus ATCC 29213 after 18 hrs by broth microdilution method. It is filed as functional. Particulars: ATCC 29213, 18 h.
In experiment [26] the test system is Bacillus thuringiensis. Nature of the experiment: Antibacterial activity against Bacillus thuringiensis SCSIO BT01 after 18 hrs by broth microdilution method. The format is functional. Particulars: SCSIO BT01, 18 h.
In experiment [27] the test system is Bacillus subtilis. Put plainly: Antibacterial activity against Bacillus subtilis SCSIO BS01 after 18 hrs by broth microdilution method. It is filed as functional. Particulars: SCSIO BS01, 18 h.
Experiment [28] deals with Escherichia coli. Nature of the experiment: Antibacterial activity against Escherichia coli ATCC 25922 after 18 hrs by broth microdilution method. The format is functional. To be noted: ATCC 25922, 18 h.

In brackets after ≈: the same amount, converted by molar mass.

The IC50 is the midpoint of a concentration-inhibition curve. Low values mean greater potency in that assay, high ones weaker potency in that assay. For the molecule `C[C@H]1COc2c(N3CCN(C)CC3)c(F)cc3c(=O)c(C(=O)O)cn1c23` [LEVOFLOXACIN], the MIC in [1] came to 0.25 µM (≈ 0.0903 µg/mL); in [2], 0.25 µM (≈ 0.0903 µg/mL); in experiment [3], 0.125 µM (≈ 0.0452 µg/mL); in experiment [5], 64 µM (≈ 23.1 µg/mL); in [6] it was 0.25 µM (≈ 0.0903 µg/mL); in experiment [8] it was 4 µM (≈ 1.45 µg/mL). Also, the MIC was 1 µM (≈ 0.361 µg/mL) in [9]; 1 µM (≈ 0.361 µg/mL) in experiment [10]; 1 µM (≈ 0.361 µg/mL) in experiment [11]; more than 128 µM in [12]; 64 µM (≈ 23.1 µg/mL) in [13]; 64 µM (≈ 23.1 µg/mL) in [14]. Further, the MIC in [15] is 64 µM (≈ 23.1 µg/mL); in experiment [16], not above 0.03 µM; in experiment [18] it was 1 µM (≈ 0.361 µg/mL); in [19] it was 32 µM (≈ 11.6 µg/mL); in experiment [21], 0.25 µM (≈ 0.0903 µg/mL); in experiment [22], more than 128 µM. Besides, the MIC in experiment [24] amounted to 16 µM (≈ 5.78 µg/mL). For the same molecule, the IC50 amounted to 250 nM in [4]; 250 nM in experiment [7]; 125 nM in [17]; 1000 nM in experiment [20]; 125 nM in [23].
As to `CCCc1cc(O)c(Cl)c2c1C(=O)Oc1cc(O)c(Cl)c(CCC)c1O2`, the MIC in [25] is 2 µg/mL (≈ 5.03 µM); in [26], 2 µg/mL (≈ 5.03 µM); in experiment [27] it was 2 µg/mL (≈ 5.03 µM); in experiment [28], more than 128 µg/mL.
Take `CCCc1cc(O)cc2c1Oc1cc(O)cc(CCC)c1C(=O)O2`: the MIC in experiment [25] is 4 µg/mL (≈ 12.2 µM); in [26], 4 µg/mL (≈ 12.2 µM); in experiment [27], 8 µg/mL (≈ 24.4 µM); in [28] it was more than 128 µg/mL.
In the case of `CCCc1c(Cl)c(OC)cc2c1OC(=O)c1c(CCC)c(Cl)c(O)c(Cl)c1O2`, the MIC in experiment [25] is 0.5 µg/mL (≈ 1.12 µM); in [26], 0.5 µg/mL (≈ 1.12 µM); in experiment [27] it was 0.5 µg/mL (≈ 1.12 µM); in experiment [28], more than 128 µg/mL.
Regarding `CCCc1c(Cl)c(O)c(Cl)c2c1OC(=O)c1c(CCC)c(Cl)c(O)c(Cl)c1O2`, the MIC in [25] is 4 µg/mL (≈ 8.58 µM); in experiment [26] it was 2 µg/mL (≈ 4.29 µM); in [27] it was 2 µg/mL (≈ 4.29 µM); in [28], more than 128 µg/mL.
On to `CCCc1c(Cl)c(O)cc2c1Oc1c(Cl)c(O)c(Cl)c(CCC)c1C(=O)O2`, for which the MIC is 2 µg/mL (≈ 4.63 µM) in [25]; 1 µg/mL (≈ 2.32 µM) in [26]; 0.5 µg/mL (≈ 1.16 µM) in experiment [27]; more than 128 µg/mL in [28]; 4 µM (≈ 1.73 µg/mL) in experiment [1]; 4 µM (≈ 1.73 µg/mL) in experiment [2]. Besides, the MIC in [3] is 4 µM (≈ 1.73 µg/mL); in [5], 4 µM (≈ 1.73 µg/mL); in [6], 2 µM (≈ 0.863 µg/mL); in experiment [8], 4 µM (≈ 1.73 µg/mL); in experiment [9], 32 µM (≈ 13.8 µg/mL); in experiment [10], 32 µM (≈ 13.8 µg/mL). The MIC is 32 µM (≈ 13.8 µg/mL) in experiment [11]; 32 µM (≈ 13.8 µg/mL) in experiment [12]; 32 µM (≈ 13.8 µg/mL) in experiment [13]; 16 µM (≈ 6.91 µg/mL) in [14]; 32 µM (≈ 13.8 µg/mL) in [15]; more than 256 µM in experiment [16]. For the same molecule, the MIC in [18], in experiment [19], in experiment [21], in experiment [22] and in experiment [24] was more than 256 µM throughout. For the same molecule, the IC50 was 4000 nM in experiment [4]; 4000 nM in [7]; more than 256000 nM in [17]; more than 256000 nM in [20]; more than 256000 nM in experiment [23].

The values are drawn from ChEMBL document CHEMBL3232998, “Spiromastixones A-O, antibacterial chlorodepsidones from a deep-sea-derived Spiromastix sp. fungus” (J Nat Prod, 2014).
